The subject of one experiment is Type IV PDE. The experiment in a line: PDE inhibitory activity, type IV isozyme (3H-cAMP hydrolysis). Format: biochemical. The conditions noted are these: partially purified from rat neutrophils, 30° C., 30 minutes. As for the experimental part: Type I, III, IV, and V PDE isozymes were prepared to study the PDE inhibitory activities and selectivities with the compound of the invention [Trends Pharmacol. Sci., 12, 19-27 (1992)]. Type I PDE was purchased from Sigma Corp. Type III, IV, and V PDE isozymes were partially purified from rats platelets (Type III and V) or neutrophils (Type IV). Each enzyme source was homogenized in a buffer (pH 6.5) containing 20 mM bisTris, 2 mM EDTA (ethylenediamine tetraacetate), 0.1 mM PMSF (phenylmethylsulfonyl fluoride), 5 mM 2-mercaptoethanol, 0.001 mM pepstatin, and 0.01 mM leupeptin and was centrifuged at 30,000×G for 30 minutes to obtain a supernatant, which was applied to an ion exchange column (Q-sepharose First Flow, Pharmacia Corp.) and was eluted with 0 to 1M sodium acetate. Partially purified isozymes were identified by observing the effects of conventional inhibitors.
Each PDE isozyme and the test compound dissolved in DMSO (dimethyl sulfoxide) were added to 50 mM Tris-HCl buffer containing 5 mM magnesium chloride. ^3 H-cAMP (for type III and IV PDE) or ^3 H-cGMP (for type I and V PDE) were added as substrates and were reacted at 30° C. for 30 minutes. The reaction was terminated by placing the test tube in boiling water of 100° C. for 5 minutes. The nucleotides formed by PDE were broken down by 5'-nucleotidase to ^3 H-adenosine or ^3 H-guanosine. The unreacted substrate and reaction product were separated through an ion-exchange column (QAE sephadex, Pharmacia Corp.) The eluted ^3 H-nucleoside was measured for its radioactivity by a liquid scintillation counter. The inhibiting activities of the compound of the present invention are shown by the IC50 value (M). Further, the inhibitory activities of the test samples against Type I, III, and V are 1/10 or less than that against type IV.

Experiment [1] has as its system antigen-induced bronchospasm in guinea pig. The experiment in a line: Inhibitory effect on antigen-induced bronchospasm (Konzett-Roessler, ovalbumin-sensitized). The conditions noted are these: Cavia porcellus; intravenous, 10 minutes before antigen (0.2 mg/kg OA i.v.); read-out: Action for suppressing antigen-induced bronchospasms ED50. Format: in vivo, guinea pig (Hartley male). As for the experimental part:
A Hartley male guinea pig was sensitized by intramuscular administration of […] Ovalbumin (OA) on first day and fourth day, and used after 24th day. A trachial canula was introduced in the guinea pig anesthetized with pentobarbital and artificial ventilation was performed 25 to 29 days after the first sensitization. The overflow of the ventilation was measured by the Konzett-Roessler method while 0.2 mg/kg OA were administered intravenously. The test compound was dissolved in polyethylene glycol 400 and intravenously administered 10 minutes before administration of the antigens.

The structures appear in SMILES notation.

A word on the IC50: it is the concentration that inhibits the measured activity by half. The ED50 is the dose that gives a 50% effect, or the effect in half of the subjects.

Compound `COc1ccc(C2CCNC(=O)O2)cc1OCC1CC1` (stereo not shown) [Compound No. 4, 6-(3-cyclopropylmethyloxy-4-methoxyphenyl)-3,4,5,6-tetrahydro-2H-1,3-oxazin-2-one] yielded an IC50 in the experiment with Type IV PDE of 3.2 µM. The 50% effective dose (ED50) in experiment [1] was determined as 0.23 mg/kg.
Taken in the same sequence, the figures for `COc1ccc(C2(C)CCNC(=O)O2)cc1OC1CCCC1` (stereo not shown) [Compound No. 6, 6-(3-cyclopentyloxy-4-methoxyphenyl)-6-methyl-3,4,5,6-tetrahydro-2H-1,3-oxazin-2-one] were 1.1 µM and 0.3 mg/kg.
In the same order, the values of `COc1ccc(C2CCN(Cc3ccncc3)C(=O)O2)cc1OC1CCCC1` (stereo not shown) [Compound No. 14, 6-(3-cyclopentyloxy-4-methoxyphenyl)-3-(4-pyridylmethyl)-3,4,5,6-tetrahydro-2H-1,3-oxazin-2-one] are 6.1 µM and 2.4 mg/kg.
Compound `COc1ccc(C2CCN(Cc3ccccn3)C(=O)O2)cc1OC1CCCC1` (stereo not shown) [Compound No. 16] registered a 50% inhibitory concentration (IC50) in the experiment on Type IV PDE of 5.5 µM. The median effective dose (ED50) in experiment [1] worked out at 2.1 mg/kg.
Taken in the same sequence, the figures for `COc1ccc(C2CCN(Cc3cccnc3)C(=O)O2)cc1OC1CCCC1` (stereo not shown) [Compound No. 20, 6-(3-cyclopentyloxy-4-methoxyphenyl)-3-(3-pyridylmethyl)-3,4,5,6-tetrahydro-2H-1,3-oxazin-2-one] were 3.5 µM and 8.5 mg/kg.
In the experiment with Type IV PDE, `COc1ccc(C2(C)CCN(C)C(=O)O2)cc1OC1CCCC1` (stereo not shown) [Compound No. 21, 6-(3-cyclopentyloxy-4-methoxyphenyl)-3,6-dimethyl-3,4,5,6-tetrahydro-2H-1,3-oxazin-2-one] had an IC50 of 0.66 µM. Besides, the 50% effective dose (ED50) in experiment [1] worked out at 0.29 mg/kg.
In the same order, the values of `COc1ccc(C2CCNC(=O)O2)cc1OCCc1ccccc1` (stereo not shown) [Compound No. 23, 6-(4-methoxy-3-phenethyloxyphenyl)-3,4,5,6-tetrahydro-2H-1,3-oxazin-2-one] are 1.5 µM and 13.6 mg/kg.
`COc1ccc(C2CCNC(=O)O2)cc1OC1Cc2ccccc2C1` (stereo not shown) [Compound No. 24, 6-[3-(2-indanyloxy)-4-methoxyphenyl]-3,4,5,6-tetrahydro-2H-1,3-oxazin-2-one]: in the experiment with Type IV PDE, the half-inhibitory concentration (IC50) is 0.13 µM. In addition, in experiment [1], the ED50 was determined as 1.6 mg/kg.
Taken in the same sequence, the figures for `COc1ccc(C2CCN(C)C(=O)O2)cc1OC1Cc2ccccc2C1` (stereo not shown) [Compound No. 25, 6-[3-(2-indanyloxy)-4-methoxyphenyl]-3-methyl-3,4,5,6-tetrahydro-2H-1,3-oxazin-2-one] were 0.19 µM and 0.061 mg/kg.
Take `CCC1(c2ccc(OC)c(OC3CCCC3)c2)CCNC(=O)O1` (stereo not shown) [Compound No. 26, 6-(3-cyclopentyloxy-4-methoxyphenyl)-6-ethyl-3,4,5,6-tetrahydro-2H-1,3-oxazin-2-one]: it took 3.5 µM to reach half-maximal inhibition with Type IV PDE (IC50). Besides, in experiment [1], the ED50 was 2.4 mg/kg.
Taken in the same sequence, the figures for `CCN1CCC(c2ccc(OC)c(OC3CCCC3)c2)OC1=O` (stereo not shown) [Compound No. 28, 6-(3-cyclopentyloxy-4-methoxyphenyl)-3-ethyl-3,4,5,6-tetrahydro-2H-1,3-oxazin-2-one] were 1.7 µM and 7.4 mg/kg.
`COc1ccc(C2(C)CCNC(=O)O2)cc1OC1Cc2ccccc2C1` (stereo not shown) [Compound No. 40, 6-[3-(2-indanyloxy)-4-methoxyphenyl]-6-methyl-3,4,5,6-tetrahydro-2H-1,3-oxazin-2-one] returned an IC50 in the experiment with Type IV PDE of 0.05 µM. Further, the ED50 in experiment [1] was found to be 0.47 mg/kg.
In the experiment on Type IV PDE, `COc1ccc(C2(C)CCN(C)C(=O)O2)cc1OC1Cc2ccccc2C1` (stereo not shown) [Compound No. 43, 3,6-dimethyl-6-[3-(2-indanyloxy)-4-methoxyphenyl]-3,4,5,6-tetrahydro-2H-1,3-oxazin-2-one] displayed an IC50 of 0.066 µM. For the same compound, the 50% effective dose (ED50) in experiment [1] was determined as 0.29 mg/kg.
Turning to `COc1ccc(C2(C)CCNC(=O)O2)cc1OCCc1ccccc1` (stereo not shown) [Compound No. 46, 6-(4-methoxy-3-phenethyloxyphenyl)-6-methyl-3,4,5,6-tetrahydro-2H-1,3-oxazin-2-one], half-maximal inhibition in the experiment with Type IV PDE (IC50) was put at 0.49 µM. In experiment [1], the 50% effective dose (ED50) came out at 11.4 mg/kg.

For the origin of these results see patent US6251897A, “6-phenyltetrahydro-1,3-oxazin-2-one derivative and pharmaceutical composition containing the same” (Nikken Chemicals Co., LTD, priority 1996, dated 2001).
